# Molecular target: human TMEM16A (TMEM16Aabc variant) (Homo sapiens, UniProt Q5XXA6, DEL476-501, form not given)
# Test: Automated whole-cell patch clamp (Qpatch) TMEM16A potentiator assay in FRT cells stably expressing human TMEM16A
# Type: cell-based
# Conditions: for % Potentiation @ 3.33 μM Avg: 3.33 μM solution of test compound, percentage increase of baseline TMEM16A current; for EC50: calculated EC50, Qpatch TMEM16A current at +70 mV
# From the text: FIG. 1 is an example trace from a whole-cell patch clamp (Qpatch) TMEM16A potentiator assay as used in Biological Example 95 and illustrates the methodology used in the assay. In FIG. 1: S is Saline; V is Vehicle; #1 is Test Compound concentration #1; #2 is Test Compound concentration 2; #3 is Test Compound concentration 3; #4 is Test Compound concentration 4; #5 is Test Compound concentration #5; and R is Reference. The arrow in column V represents the baseline current, IBL. The arrows in each of the columns #1, #2, #3, #4, #5 and R represent I#[1], I#[2], I#[3], I#[4], I#[5] and I[Ref], which are the peak currents during the incubation periods for test compounds concentrations #1 to #5 and the Reference.
# Fisher rat thyroid (FRT) cells stably expressing human TMEM16A (TMEM16Aabc variant; Dr Luis Galietta, Insituto Giannina, Italy) were cultured in T-75 flasks in Hams F-12 media with Coon's modification (Sigma) supplemented with 10% (v/v) foetal bovine serum, penicillin-streptomycin (10,000 U/mL/10000 μg/mL), G-418 (750 μg/mL), L-glutamine (2 mM) and sodium bicarbonate solution (7.5% v/v). At ˜90% confluence cells were harvested for experiments by detachment with a 2:1 (v/v) mixture of Detachin (BMS Biotechnology) and 0.25% (w/v) trypsin-EDTA. Cells were diluted to a density of 3.5-4.5×10^6 cells/mL with media consisting of CHO-S-SFM II (Sigma), 25 mM HEPES (Sigma) and Soy bean trypsin inhibitor (Sigma).
# FRT-TMEM16A cells were whole-cell patch clamped using an automated planar patch clamp system (Qpatch, Sophion). Briefly, once high resistance (GOhm) seals were established between the cells and the planar recording array the patch was ruptured using suction pulses to establish the whole-cell recording configuration of the patch clamp technique. The assay employed the following solutions (all reagents Sigma): Intracellular solution (mM): N-methyl-D-glucamine 130, CaCl2 18.2, MgCl2 1, HEPES 10, EGTA 10, BAPTA 20, Mg-ATP 2, pH 7.25, 325 mOsm with sucrose.
# Extracellular solution (mM): N-methyl-D-glucamine 130, CaCl2 2, MgCl2 1, HEPES 10, pH 7.3, 320 mOsm with sucrose.
# The intracellular solution buffers intracellular calcium at levels required to give ˜20% activation of the maximal TMEM16A mediated current (EC20 for calcium ions). Cells were voltage clamped at a holding potential of −70 mV and a combined voltage step (to +70 mV)/ramp (−90 my to +90 mV) was applied at 0.05 Hz. After a period of current stabilisation test compounds, solubilised in 100% (v/v) DMSO and subsequently diluted into extracellular solution, were applied to generate a cumulative concentration response curve. Each concentration of test compound was incubated for 5 minutes before addition of the next concentration. After the final concentration was tested a supramaximal concentration of either a known active positive modulator or the TMEM16A inhibitor, CaCCinhA01 (Del La Fuente et al, 2008) was added to define the upper and lower limits of the assay.
# Compound activity was quantified by measuring the increase in current upon compound addition and expressing this as a percentage increase of baseline TMEM16A current level. Percentage increases in current were determined for each concentration and the data plotted as a function of concentration using either the Qpatch software or Graphpad Prism v6.05 providing the concentration which gave 50% of its maximal effect (EC50) and maximum efficacy (percentage of baseline increase).
# In FIG. 1, IBL equals baseline current, I[#1] equals the peak current during test compound concentration 1 incubation period and so on.
# Peak TMEM16A current at +70 mV was plotted as a function of time over the assay period. Baseline current (IBL) was measured after a period of stabilisation. The increase in current for each compound addition was determined by taking the peak current during the incubation period and subtracting the current from the previous recording period and then expressing this as a percentage of the baseline current. […]
# human TMEM16A (TMEM16Aabc variant), sequence (Q5XXA6 with tags, fused parts or gaps DEL476-501): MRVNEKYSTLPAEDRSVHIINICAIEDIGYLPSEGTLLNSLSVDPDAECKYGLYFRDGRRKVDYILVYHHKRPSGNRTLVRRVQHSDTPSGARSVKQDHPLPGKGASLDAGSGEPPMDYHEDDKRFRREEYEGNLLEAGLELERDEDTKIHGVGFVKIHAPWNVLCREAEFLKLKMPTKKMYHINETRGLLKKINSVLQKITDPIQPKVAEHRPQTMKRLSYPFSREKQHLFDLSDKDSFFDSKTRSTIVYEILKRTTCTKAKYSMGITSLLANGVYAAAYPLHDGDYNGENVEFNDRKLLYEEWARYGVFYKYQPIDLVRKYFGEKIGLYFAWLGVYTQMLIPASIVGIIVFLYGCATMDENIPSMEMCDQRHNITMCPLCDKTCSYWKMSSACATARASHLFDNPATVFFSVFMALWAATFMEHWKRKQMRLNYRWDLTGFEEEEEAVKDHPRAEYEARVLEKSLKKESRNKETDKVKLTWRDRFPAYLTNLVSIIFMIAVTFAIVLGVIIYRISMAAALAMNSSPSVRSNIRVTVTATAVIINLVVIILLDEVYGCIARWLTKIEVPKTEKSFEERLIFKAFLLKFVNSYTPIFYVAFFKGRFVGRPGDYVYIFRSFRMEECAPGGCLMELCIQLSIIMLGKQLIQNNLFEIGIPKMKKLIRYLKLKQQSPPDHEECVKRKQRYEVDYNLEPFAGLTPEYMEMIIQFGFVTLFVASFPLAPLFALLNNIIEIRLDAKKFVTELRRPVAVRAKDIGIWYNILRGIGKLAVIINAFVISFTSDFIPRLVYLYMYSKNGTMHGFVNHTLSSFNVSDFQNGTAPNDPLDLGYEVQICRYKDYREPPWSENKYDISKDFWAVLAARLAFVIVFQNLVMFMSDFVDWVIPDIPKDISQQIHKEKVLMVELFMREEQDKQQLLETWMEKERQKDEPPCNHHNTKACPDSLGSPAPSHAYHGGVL
SMILES,% Potentiation @ 3.33 μM Avg [%],EC50 [nM]
"CC(C)(CCNC(=O)OC(C)(C)C)NC(=O)c1cc(NC(=O)Cc2cc(Cl)ccc2O)ccn1 [Example 1.8, tert-Butyl N-[3-[[4-[[2-(5-chloro-2-hydroxy-phenyl)acetyl]amino]pyridine-2-carbonyl]amino]-3-methyl-butyl]carbamate]",300,410
"COCC(C)(C)NC(=O)c1cccc(NC(=O)Cc2ccccc2O)c1 [Example 1.9, 3-[[2-(2-Hydroxyphenyl)acetyl]amino]-N-(2-methoxy-1,1-dimethyl-ethyl)benzamide]",79,4200
"O=C(Cc1cc(Cl)ccc1O)Nc1ccnc(C(=O)NC2CCCCC2)c1 [Example 1.10, 4-[[2-(5-Chloro-2-hydroxy-phenyl)acetyl]amino]-N-cyclohexyl-pyridine-2-carboxamide]",200,80
"CC(C)(C)NC(=O)c1cccc(NC(=O)Cc2cc(Cl)ccc2O)c1 [Example 2, N-tert-Butyl-3-[[2-(5-chloro-2-hydroxy-phenyl)acetyl]amino]benzamide]",262,270
"CC(C)(C)NC(=O)c1cccc(NC(=O)Cc2cc(F)ccc2O)c1 [Example 2.1, N-tert-Butyl-3-[[2-(5-fluoro-2-hydroxy-phenyl)acetyl]amino]benzamide]",216,490
"CC(C)(C)NC(=O)c1cccc(NC(=O)Cc2cccc(F)c2O)c1 [Example 2.2, N-tert-Butyl-3-[[2-(3-fluoro-2-hydroxy-phenyl)acetyl]amino]benzamide]",158,1610
"CC(C)(C)NC(=O)c1cccc(NC(=O)Cc2ccc(F)cc2O)c1 [Example 2.3, N-tert-Butyl-3-[[2-(4-fluoro-2-hydroxy-phenyl)acetyl]amino]benzamide]",203,590
"CC(C)(C)NC(=O)c1cccc(NC(=O)Cc2c(O)cccc2O)c1 [Example 2.4, N-tert-Butyl-3-[[2-(2,6-dihydroxyphenyl)acetyl]amino]benzamide]",53,
"CC(C)(C)NC(=O)c1cccc(NC(=O)CCc2ccccc2O)c1 [Example 2.5, N-tert-Butyl-3-[3-(2-hydroxyphenyl)propanamido]benzamide]",51,1340
"COc1cccc(O)c1CC(=O)Nc1cccc(C(=O)NC(C)(C)C)c1 [Example 2.6, N-tert-Butyl-3-[[2-(2-hydroxy-6-methoxy-phenyl)acetyl]amino] benzamide]",140,2910
"CC(C(=O)Nc1cccc(C(=O)NC(C)(C)C)c1)c1ccccc1O (stereo not shown) [Example 2.7, N-tert-Butyl-3-[2-(2-hydroxyphenyl)propanamido]benzamide]",51,8190
"COc1cccc(CC(=O)Nc2cccc(C(=O)NC(C)(C)C)c2)c1O [Example 2.8, N-tert-Butyl-3-[[2-(2-hydroxy-3-methoxy-phenyl)acetyl]amino] benzamide]",74,4550
"CC(C)(C)NC(=O)c1cccc(NC(=O)Cc2cc(F)cc(F)c2O)c1 [Example 2.9, N-tert-Butyl-3-[[2-(3,5-difluoro-2-hydroxy-phenyl)acetyl]amino] benzamide]",148,990
"CC(C)(C)NC(=O)c1cccc(NC(=O)Cc2cc(Br)ccc2O)c1 [Example 2.10, 3-[[2-(5-Bromo-2-hydroxy-phenyl)acetyl]amino]-N-tert-butyl-benzamide]",133,460
"CC(C)(C)NC(=O)c1cccc(NC(=O)Cc2c(O)ccc(F)c2F)c1 [Example 2.11, N-tert-Butyl-3-[[2-(2,3-difluoro-6-hydroxy-phenyl)acetyl]amino] benzamide]",126,430
"CC(C)(C)NC(=O)c1cccc(NC(=O)Cc2cc(F)c(F)cc2O)c1 [Example 2.12, N-tert-Butyl-3-[[2-(4,5-difluoro-2-hydroxy-phenyl)acetyl]amino] benzamide]",111,310
"CCC(C)(C)NC(=O)c1cccc(NC(=O)Cc2ccc(F)cc2O)c1 [Example 2.13, N-(1,1-Dimethylpropyl)-3-[[2-(4-fluoro-2-hydroxy-phenyl)acetyl]amino] benzamide]",126,460
"COc1ccc(CC(=O)Nc2cccc(C(=O)NC(C)(C)C)c2)c(O)c1 [Example 2.14, N-tert-Butyl-3-[[2-(2-hydroxy-4-methoxy-phenyl)acetyl]amino]benzamide]",100,1780
"CC(C)(C)NC(=O)c1cccc(NC(=O)Cc2c(O)cccc2F)c1 [Example 2.15, N-tert-Butyl-3-[[2-(2-fluoro-6-hydroxy-phenyl)acetyl]amino]benzamide]",163,490
"CC(C)(C)NC(=O)c1cccc(NC(=O)Cc2cccc(O)c2O)c1 [Example 2.16, N-tert-Butyl-3-[[2-(2,3-dihydroxyphenyl)acetyl]amino]benzamide]",60,4270
"CC(C)(C)NC(=O)c1cccc(NC(=O)Cc2cc(C(F)(F)F)ccc2O)c1 [Example 2.17, N-tert-Butyl-3-[[2-[2-hydroxy-5-(trifluoromethyl)phenyl]acetyl]amino]benzamide]",172,270
"COC(=O)c1ccc(O)c(CC(=O)Nc2cccc(C(=O)NC(C)(C)C)c2)c1 [Example 2.18, Methyl 3-[2-[3-(tert-butylcarbamoyl)anilino]-2-oxo-ethyl]-4-hydroxy-benzoate]",118,1410
"CC(C)(C)NC(=O)c1cccc(NC(=O)Cc2ccc(C(F)(F)F)cc2O)c1 [Example 2.19, N-tert-Butyl-3-[[2-[2-hydroxy-4-(trifluoromethyl)phenyl]acetyl]amino]benzamide]",249,460
"CC(C)(C)NC(=O)c1cc(NC(=O)Cc2cc(Cl)ccc2O)ccn1 [Example 3, N-tert-Butyl-4-[[2-(5-chloro-2-hydroxy-phenyl)acetyl]amino]pyridine-2-carboxamide]",287,110
"CCC(C)(C)NC(=O)c1cc(NC(=O)Cc2ccc(F)cc2O)ccn1 [Example 3.1a, N-(1,1-Dimethylpropyl)-4-[[2-(4-fluoro-2-hydroxy-phenyl)acetyl]amino]pyridine-2-carboxamide]",128,180
"CC(C)(C)NC(=O)c1cc(NC(=O)Cc2ccc(F)cc2O)ccn1 [Example 3.2a, N-tert-Butyl-4-[[2-(4-fluoro-2-hydroxy-phenyl)acetyl]amino]pyridine-2-carboxamide]",116,160
"CC(C)(C)NC(=O)c1cc(NC(=O)Cc2c(O)cccc2Cl)ccn1 [Example 3.3a, N-tert-Butyl-4-[[2-(2-chloro-6-hydroxy-phenyl)acetyl]amino]pyridine-2-carboxamide]",91,70
"CC(C)(C)NC(=O)c1cc(NC(=O)Cc2cc(Cl)c(Br)cc2O)ccn1 [Example 3.4a, 4-[[2-(4-Bromo-5-chloro-2-hydroxy-phenyl)acetyl]amino]-N-tert-butyl-pyridine-2-carboxamide]",206,140
